Assay results: US5563125A, “5'-deoxy-5'-(substituted)alkylthioribose compounds and their pharmaceutical compositions” (priority 1992, dated 1996)

Columns and labels:
[1] = target: T1, T. b. brucei MTA phosphorylase (Trypanosoma brucei, UniProt Q57XS4); assay: T. b. brucei MTA phosphorylase substrate assay; type: biochemical; details: relative to MTA
T1 construct: MTA or analogs as substrates
Protocol: ^a MTA phosphorylase was assayed according to Ghoda et al., using 200
μM MTA (saturating) or analogs as substrates. Specific activities of
the dialyzed enzyme preparations were with 50 mM PO4, 104.97 n
moles/mg protein/h; without PO4, 28.27 n moles/mg protein/h. Results
are expressed as percent activity compared to as substrate with and
without PO4, respectively.

L1210 leukemic cells = assay: Antitumor effects in L1210 leukemic mice; type: in vivo, DBA/2N mice
Protocol: The antitumor effects of MFETA were evaluated in DBA/2N mice (Charles River) who received i.p. transplants of 10^6 L1210 leukemic cells or 10^6 L5178Y leukemic cells on day 0 according to protocols described previously by Bernacki et al., Cancer Res. 47, 799, 1987. The increase in life span (% ILS) of treated animals relative to untreated, tumor-bearing animals was used as the measure of their therapeutic effectiveness at specified dose regimens.
^a MFETA was administered i.p. on days 1, 2, 3, 4, 5 following i.p.
implantation of 10^6 tumor cells on day 0.
^b % ILS is the percentage of increase in life span.

[2] = system: T. b. brucei procyclic trypanosomes (Lab 110 EATRO strain); assay: In vitro antitrypanosomal activity, procyclic trypanosomes in T2 medium; type: cell-based, Trypanosoma brucei brucei; details: Trypanosoma brucei, 3-5 days
Protocol: The antitrypanosomal effects of HETA and other nucleosides were examined in the Lab 110 EATRO strain of T. b. brucei in culture.
Cells were cultured as described in Bacchi et al. Exp. Parasitol. 68, 392, 1989. Cells were then grown in the presence of the compounds for 3-5 days. Drugs were filtered, sterilized and added aseptically. Control cells achieved a maximum density of 1.5-3.5×10^7 /ml. Hemocytometer counts were made daily and the results were expressed as a percent of control growth. IC50 plots were obtained by graphing log (drug) vs. percent growth inhibition.
Trypanocidal Activity of MTA and MTR Analogs
against T. b. brucei procyclic trypanosomes in T2 medium.

[3] = system: L1210 cells (MTA phosphorylase-deficient); assay: Growth inhibition of L1210 cells; type: cell-based, mouse; details: Mus musculus, L1210, 48 h
Protocol: (§1) L1210, L5178Y and MOLT-4 cell lines were grown in RPMI 1640 and 10% Nu Serum (Collaborative Research Inc., Lexington, Mass.) and CCRF-CEM cells were grown in 10% Horse Serum (Gibco Laboratories, Grand Island, N.Y.) and maintained as previously described for suspension cultures by Pera et al. in Cancer Res. 46, 1148, 1986. Cell cultures (0.3×10^5 cells/ml) were treated with each compound at 0.1 to 1000 μM to determine the concentration that inhibited growth by 50% (IC50) at 48 hr for the L1210 and L5178Y cells and at 96 hr for the CCRF-CEM and MOLT-4 cells. The incubation times allowed approximately 4 cell doublings in each cell line. All compounds were freshly prepared prior to treatment by dissolving in DMSO and diluting in serum-free media. Cells were counted by electron particle counting (Model XF' Coulter Counter; Coulter Electronics, Hialeah, Fla.).
(§2) For each compound, the concentrations required to inhibit cell growth by 50% (IC50 values) are shown in Table 7 for two murine leukemic cell lines, L1210 and L5178Y [MTA phosphorylase-deficient and MTA phosphorylase-containing, respectively] and two human leukemic cell lines, CCRF-CEM and MOLT-4 [MTA phosphorylase-deficient and MTA phosphorylase-containing, respectively]. ETA, MFETA, HETA and PTA had lower IC50 values in the L5178Y cells than in the L1210 cells. […] This differential is consistent with the possibility that, in L5178Y cells, MFETA is cleaved by MTA phosphorylase to the growth inhibitory metabolite, 5-monofluoroethylthioribose-1-phosphate (MFETR-1-P).

SH-1 (human melanoma) = assay: In vitro evaluation, SH-1; type: cell-based; details: SH-1, medium B, 72 hours
Protocol: (§3) In vitro evaluations of the compound 5'-deoxy-5'-(monofluoroethylthio) adenosine (MFETA) were performed using the materials and conditions described in Tables 9 and 10.
(§4) ^(a) Basal medium = RPMI 1640 + 20 mM HEPES + 2 mM Lglutamine
(§5) B = 5% FCS + 5% NuSerum IV

HO (human melanoma) = assay: In vitro evaluation, HO; type: cell-based; details: medium B, 72 hours
Protocol: as §3, §4, §5

[4] = system: HT-29 (human colon carcinoma); assay: In vitro evaluation, HT-29; type: cell-based; details: HT-29, medium B, 96 hours, solvent DMSO
Protocol: as §3
(a) Basal medium + RPMI 1640 + 20 mM HEPES;
B--5% NuSerum IV + 5% FCS,
*Incubation or exposure time is determined by the doubling time of the
cell line such that each is exposed to the compound for 3-4 cell

[5] = system: MOLT-4 cells (MTA phosphorylase-containing); assay: Growth inhibition of MOLT-4 cells; type: cell-based, human; details: Homo sapiens, MOLT-4, 96 h
Protocol: as §1, §2

MALME (human melanoma) = assay: In vitro evaluation, MALME; type: cell-based; details: medium B, 72 hours
Protocol: as §3, §4, §5

[6] = system: CCRF-CEM cells (MTA phosphorylase-deficient); assay: Growth inhibition of CCRF-CEM cells; type: cell-based, human; details: Homo sapiens, 96 h
Protocol: as §1, §2

T1 sequence (Q57XS4 entry or part of it): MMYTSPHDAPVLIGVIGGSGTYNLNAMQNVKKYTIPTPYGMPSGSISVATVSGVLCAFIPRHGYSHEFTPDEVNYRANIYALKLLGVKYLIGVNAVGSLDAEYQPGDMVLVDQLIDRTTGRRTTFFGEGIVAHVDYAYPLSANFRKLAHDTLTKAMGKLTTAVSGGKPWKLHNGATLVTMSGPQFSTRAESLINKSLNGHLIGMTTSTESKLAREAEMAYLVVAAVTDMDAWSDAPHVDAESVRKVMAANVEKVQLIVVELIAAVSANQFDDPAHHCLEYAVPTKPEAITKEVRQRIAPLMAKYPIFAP

Question: Nc1ncnc2c1ncn2[C@@H]1O[C@H](CSCCF)[C@@H](O)[C@H]1O [MFETA, 5'-deoxy-5'-(monofluoroethylthio)adenosine] was tested. Which “Percent Control Activity” value ([1]; +50 mM PO4, 200 μM substrate) did it give?
Answer: The value was 75.3%.

Question: What about the “Percent Control Activity” value ([1]; No PO4, 200 μM substrate) of the same molecule?
Answer: The value was 109.1%.

Question: What about the “% ILS (percentage of increase in life span)” value (L1210 leukemic cells; L1210, 10 mg/kg i.p. days 1-5) of the same molecule?
Answer: Its value is 14%.

Question: And the “Mean Death Weight” value (L1210 leukemic cells; L1210, 10 mg/kg i.p. days 1-5)?
Answer: Its value is 23.7 g.

Question: What about the “Survival Mean ± SD” value (L1210 leukemic cells; L1210, 10 mg/kg i.p. days 1-5) of the same molecule?
Answer: The value was 7.2 ± 0.5 days.

Question: What about the “Survival Median” value (L1210 leukemic cells; L1210, 10 mg/kg i.p. days 1-5) of the same molecule?
Answer: The value was 8 days.

Question: What about the “Survival Range” value (L1210 leukemic cells; L1210, 10 mg/kg i.p. days 1-5) of the same molecule?
Answer: The value was 6 to 8 days.

Question: And the “% ILS (percentage of increase in life span)” value (L1210 leukemic cells; L1210, 50 mg/kg i.p. days 1-5)?
Answer: Its value is 14%.

Question: What about the “Mean Death Weight” value (L1210 leukemic cells; L1210, 50 mg/kg i.p. days 1-5) of the same molecule?
Answer: Its value is 24.5 g.

Question: What about the “Survival Mean ± SD” value (L1210 leukemic cells; L1210, 50 mg/kg i.p. days 1-5) of the same molecule?
Answer: The value was 7.8 ± 0.2 days.

Question: And the “Survival Median” value (L1210 leukemic cells; L1210, 50 mg/kg i.p. days 1-5)?
Answer: The value was 8 days.

Question: What about the “Survival Range” value (L1210 leukemic cells; L1210, 50 mg/kg i.p. days 1-5) of the same molecule?
Answer: The value was 7 to 8 days.

Question: What about the “% ILS (percentage of increase in life span)” value (L1210 leukemic cells; L1210, 100 mg/kg i.p. days 1-5) of the same molecule?
Answer: Its value is 14%.

Question: What about the “Mean Death Weight” value (L1210 leukemic cells; L1210, 100 mg/kg i.p. days 1-5) of the same molecule?
Answer: The value was 22.8 g.

Question: What about the “Survival Mean ± SD” value (L1210 leukemic cells; L1210, 100 mg/kg i.p. days 1-5) of the same molecule?
Answer: The value was 7.9 ± 0.2 days.

Question: And the “Survival Median” value (L1210 leukemic cells; L1210, 100 mg/kg i.p. days 1-5)?
Answer: Its value is 8 days.

Question: What about the “Survival Range” value (L1210 leukemic cells; L1210, 100 mg/kg i.p. days 1-5) of the same molecule?
Answer: Its value is 7 to 9 days.

Question: And the “% ILS (percentage of increase in life span)” value (L1210 leukemic cells; L1210, 200 mg/kg i.p. days 1-5)?
Answer: Its value is 28%.

Question: What about the “Mean Death Weight” value (L1210 leukemic cells; L1210, 200 mg/kg i.p. days 1-5) of the same molecule?
Answer: The value was 18.4 g.

Question: What about the “Survival Mean ± SD” value (L1210 leukemic cells; L1210, 200 mg/kg i.p. days 1-5) of the same molecule?
Answer: The value was 8.8 ± 0.8 days.

Question: What about the “Survival Median” value (L1210 leukemic cells; L1210, 200 mg/kg i.p. days 1-5) of the same molecule?
Answer: The value was 9 days.

Question: And the “Survival Range” value (L1210 leukemic cells; L1210, 200 mg/kg i.p. days 1-5)?
Answer: Its value is 6 to 11 days.

Question: And the “% ILS (percentage of increase in life span)” value (L1210 leukemic cells; L1210, 300 mg/kg i.p. days 1-5)?
Answer: Its value is -72%.

Question: What about the “Mean Death Weight” value (L1210 leukemic cells; L1210, 300 mg/kg i.p. days 1-5) of the same molecule?
Answer: Its value is 18.8 g.

Question: And the “Survival Mean ± SD” value (L1210 leukemic cells; L1210, 300 mg/kg i.p. days 1-5)?
Answer: The value was 2.2 ± 0.2 days.

Question: And the “Survival Median” value (L1210 leukemic cells; L1210, 300 mg/kg i.p. days 1-5)?
Answer: Its value is 2 days.

Question: And the “Survival Range” value (L1210 leukemic cells; L1210, 300 mg/kg i.p. days 1-5)?
Answer: Its value is 2 to 3 days.

Question: And the IC50 [2]?
Answer: The IC50 was 5 µM.

Question: What about the IC50 [3] of the same molecule?
Answer: Its IC50 is 150 ± 50 µM.

Question: What about the IC50 (SH-1 (human melanoma)) of the same molecule?
Answer: The IC50 was 319 ± 10 µM.

Question: And the IC50 (HO (human melanoma))?
Answer: The IC50 was 333 ± 5.9 µM.

Question: And the IC50 [4]?
Answer: Its IC50 is 259 µM.

Question: What about the IC50 [5] of the same molecule?
Answer: Its IC50 is 10 ± 3 µM.

Question: And the IC50 (MALME (human melanoma))?
Answer: The IC50 was 364 ± 13 µM.

Question: What about the IC50 [6] of the same molecule?
Answer: The IC50 was 75 ± 20 µM.
